Test results as given in patent US10774074B2, “2-(1-heteroarylpiperazin-4-yl)methyl-1,4-benzodioxane derivatives as alpha2C antagonists” (ORION CORPORATION, priority 2015, dated 2020).
Where a name gives a salt, the structure may show the parent alone.

Columns and labels:
[1] = target: T1, human alpha2C receptors (Homo sapiens, UniProt P18825); experiment: Determination of alpha2C antagonistic activity in vitro (FLIPR calcium assay, CHO cells); format: cell-based; conditions: for Kb: Kb calculated with the Cheng-Prusoff equation from IC50, adrenaline as agonist, CHO cells, human alpha2C, read-out: Alpha 2C Adrenaline Kb; for IC50: antagonism of adrenaline stimulation, CHO cells stably transfected with human alpha2C receptor and Gα16, intracellular calcium (FLIPR), read-out: Alpha 2C Adrenaline IC50
T1 construct: host or cells: CHO cells, cotransfected with pCEP-Gα16
T1 sequence (P18825 1-462): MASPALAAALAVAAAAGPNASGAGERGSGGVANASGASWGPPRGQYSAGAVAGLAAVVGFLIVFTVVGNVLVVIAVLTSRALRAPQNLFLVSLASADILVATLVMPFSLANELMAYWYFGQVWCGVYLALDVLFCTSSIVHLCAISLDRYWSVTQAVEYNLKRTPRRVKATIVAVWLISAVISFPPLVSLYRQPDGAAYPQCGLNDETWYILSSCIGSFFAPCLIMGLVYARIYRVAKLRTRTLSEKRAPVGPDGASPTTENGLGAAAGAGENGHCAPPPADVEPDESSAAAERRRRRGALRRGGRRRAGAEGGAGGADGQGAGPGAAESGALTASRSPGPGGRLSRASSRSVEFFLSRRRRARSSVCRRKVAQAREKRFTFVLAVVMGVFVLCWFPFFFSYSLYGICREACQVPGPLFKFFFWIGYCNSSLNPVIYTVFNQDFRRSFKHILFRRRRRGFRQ
Method: (§1) EXPERIMENT 1: Determination of alpha2A and alpha2C Antagonistic Activity In Vitro
(§2) Chinese hamster ovary (CHO) cells stably transfected with human alpha2A or alpha2C receptors (University of Turku, Finland) were cotransfected with the expression vector pCEP-Gα16 (Molecular Devices, CA, USA) were used in this experiment. The cells were maintained at 37° C. in a 5% CO2/95% air atmosphere. The cells were cultured in HAM F-12 medium supplemented with 10% FCS, 25 mM HEPES, 100 IU/ml penicillin, 100 µg/ml streptomycin, 500 μg/ml geneticin and 240 μg/ml hygromycin B. The cells were subcultured twice weekly with 0.25% trypsin and 1 mM EDTA. The subculture ratio was 1:5-1:20. The growth medium was changed every 2 or 3 days. All cell culture reagents were from Gibco. The day before the experiment the cells were plated into black-walled, clear bottom 384-well plates at a density of 10,000 cells/well.
(§3) The growth medium was removed and the cells were incubated with the test compounds and the FLIPR Calcium 6 Assay reagent (Molecular Devices, CA, USA) for 2 h at 37° C. in dark. The test compounds (concentrations in cells 100 pM-10 μM) were dissolved in Probenecid-Ringer consisting of 150 mM NaCl, 3 mM KCl, 1.2 mM MgCl2, 1 mM CaCl2, 5 mM glucose, 20 mM HEPES and 2.5 mM probenecid (pH 7.4 adjusted with 1.0 M NaOH). The osmolarity was adjusted to 322 milliosmoles with Osmostat® OM-6020 osmometer (DIC Kyoto Daiichi Kagagu Co. Ltd, Japan). […] All experiments were performed at 37° C. For agonism measurements the test compounds dissolved in Probenecid-Ringer were applied by FLIPR Tetra at 15 s time point. In order to determine antagonism, the cells were stimulated either with 100 nM adrenaline or noradrenaline and the test compounds were added to the cells 2 h before the experiment with the FLIPR Calcium 6 Assay reagent. […] Typically, there were four replicates at each concentration and six different dose levels. For example, if the number of plates from which results were obtained was three, 72 (4*6*3) wells were thus measured to construct dose-response relationship. The samples were excited at 485 nm and emission was detected at 525 nm with a 515 nm cut-off filter. The minimum fluorescence value subtracted from the maximum value for each well was used in the calculations. ScreenWorks version 4.0 software was used for analyzing the results. Fitting of the antagonist dose-response results was performed with the free Hill equation and the IC50 values were fitted with IDBS XE software using model 200: y=(A+(B/(1+((x/C)^D)))), where A is the curve maximum, B the curve minimum and C equals the EC50 value. D is slope factor (Hill). Kb was calculated with the Cheng-Prusoff equation Kb=A/((B/C)+1), where A is the IC50 of antagonist, B the concentration of agonist and C the EC50 of the agonist.

[2] = target: T2, human alpha2A receptors (Homo sapiens, UniProt P08913); experiment: Determination of alpha2A antagonistic activity in vitro (FLIPR calcium assay, CHO cells); format: cell-based; conditions: for Kb: Kb calculated with the Cheng-Prusoff equation from IC50, adrenaline as agonist, CHO cells, human alpha2A, read-out: Alpha 2A Adrenaline Kb; for IC50: antagonism of adrenaline stimulation, CHO cells stably transfected with human alpha2A receptor and Gα16, intracellular calcium (FLIPR), read-out: Alpha 2A Adrenaline IC50
T2 construct: host or cells: CHO cells, cotransfected with pCEP-Gα16
T2 sequence (P08913 1-465): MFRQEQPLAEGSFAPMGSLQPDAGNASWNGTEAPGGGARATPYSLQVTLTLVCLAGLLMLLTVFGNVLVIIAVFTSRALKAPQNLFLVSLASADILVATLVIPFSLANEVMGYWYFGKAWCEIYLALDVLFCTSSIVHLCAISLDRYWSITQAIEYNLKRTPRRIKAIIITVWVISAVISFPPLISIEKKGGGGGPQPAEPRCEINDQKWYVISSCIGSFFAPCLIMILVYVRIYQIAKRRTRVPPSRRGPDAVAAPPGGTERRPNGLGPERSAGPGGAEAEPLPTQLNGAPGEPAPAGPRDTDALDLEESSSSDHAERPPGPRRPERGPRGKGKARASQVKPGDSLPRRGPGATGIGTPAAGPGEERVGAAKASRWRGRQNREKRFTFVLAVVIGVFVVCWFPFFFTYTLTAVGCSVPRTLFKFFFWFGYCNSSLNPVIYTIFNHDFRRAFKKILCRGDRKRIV
Method: as §1, §2, §3

Compound	Kb [1]	IC50 [1]	Kb [2]	IC50 [2]
O=C1CCCN1c1nsnc1N1CCN(C[C@H]2COc3ccccc3O2)CC1 [Compound of example 24, (S)-1-(4-(4-((2,3-Dihydrobenzo[b][1,4]dioxin-2-yl)methyl)piperazin-1-yl)-1,2,5-thiadiazol-3-yl)pyrrolidin-2-one]	0.546 nM	0.055 nM	385 nM	8570 nM
Cc1c(N2CC(C)(C)NC2=O)c(N2CCN(C[C@H]3COc4ccccc4O3)CC2)nn1C [Compound of example 6, (S)-1-(3-(4-((2,3-Dihydrobenzo[b][1,4]dioxin-2-yl)methyl)piperazin-1-yl)-1,5-dimethyl-1H-pyrazol-4-yl)-4,4-dimethylimidazolidin-2-one]	< 0.1 nM	< 0.01 nM	–	–
COCc1scnc1N1CCN(C[C@H]2COc3ccccc3O2)CC1 [Compound of example 8, (S)-4-(4-((2,3-Dihydrobenzo[b][1,4]dioxin-2-yl)methyl)piperazin-1-yl)-5-(methoxymethyl)thiazole]	< 0.1 nM	< 0.01 nM	88 nM	1970 nM
CC1CCN(c2nsnc2N2CCN(C[C@H]3COc4ccccc4O3)CC2)C1=O (stereo partly drawn) [Compound of example 21, 1-(4-(4-(((S)-2,3-Dihydrobenzo[b][1,4]dioxin-2-yl)methyl)piperazin-1-yl)-1,2,5-thiadiazol-3-yl)-3-methylpyrrolidin-2-one]	0.38 nM	0.04 nM	> 449 nM	> 10000 nM
CCOC(=O)c1c(N2CCN(C[C@H]3COc4ccccc4O3)CC2)nn(C)c1C [Compound of example 12, (S)-Ethyl 3-(4-((2,3-dihydrobenzo[b][1,4]dioxin-2-yl)methyl)piperazin-1-yl)-1,5-dimethyl-1H-pyrazole-4-carboxylate]	2.13 nM	0.21 nM	120 nM	2680 nM
c1ccc2c(c1)OC[C@H](CN1CCN(c3nsnc3Nc3ccncn3)CC1)O2 [Compound of example 19, (S)-4-(4-((2,3-Dihydrobenzo[b][1,4]dioxin-2-yl)methyl)piperazin-1-yl)-N-(pyrimidin-4-yl)-1,2,5-thiadiazol-3-amine]	< 0.1 nM	< 0.01 nM	459 nM	10200 nM
Cc1c(N2CCCC2=O)c(N2CCN(C[C@H]3COc4ccccc4O3)CC2)nn1C [Compound of example 14, (S)-1-(3-(4-((2,3-Dihydrobenzo[b][1,4]dioxin-2-yl)methyl)piperazin-1-yl)-1,5-dimethyl-1H-pyrazol-4-yl)pyrrolidin-2-one]	0.29 nM	0.03 nM	382 nM	8520 nM
O=C1OCCN1c1nsnc1N1CCN(C[C@H]2COc3ccccc3O2)CC1 [Compound of example 26, (S)-3-(4-(4-((2,3-Dihydrobenzo[b][1,4]dioxin-2-yl)methyl)piperazin-1-yl)-1,2,5-thiadiazol-3-yl)oxazolidin-2-one]	183 nM	18.5 nM	> 449 nM	> 10000 nM
Cc1nc(C#N)c(N2CCN(C[C@H]3COc4ccccc4O3)CC2)o1 [Compound of example 3, (S)-5-(4-((2,3-Dihydrobenzo[b][1,4]dioxin-2-yl)methyl)piperazin-1-yl)-2-methyloxazole-4-carbonitrile]	912 nM	91.9 nM	> 449 nM	> 10000 nM
Cc1nc(N2CCN(C[C@H]3COc4ccccc4O3)CC2)c(N2C(=O)CC(C)(C)C2=O)s1 [Compound of example 32, (S)-1-(4-(4-((2,3-Dihydrobenzo[b][1,4]dioxin-2-yl)methyl)piperazin-1-yl)-2-methylthiazol-5-yl)-3,3-dimethylpyrrolidine-2,5-dione hydrochloride]	< 0.1 nM	< 0.01 nM	–	–
(S)-4-(4-((2,3-Dihydrobenzo[b][1,4]dioxin-2-yl)methyl)piperazin-1-yl)-N-(pyridin-4-yl)-1,2,5-thiadiazol-3-amine dihydrochloride [Compound of example 35]	–	–	275 nM	6130 nM

Second part, the compound after the results:

Kb [1]	IC50 [1]	Kb [2]	IC50 [2]	Compound
0.55 nM	0.06 nM	> 449 nM	> 10000 nM	Cc1c(N2CCNC2=O)c(N2CCN(C[C@H]3COc4ccccc4O3)CC2)nn1C [Compound of example 9, (S)-1-(3-(4-((2,3-Dihydrobenzo[b][1,4]dioxin-2-yl)methyl)piperazin-1-yl)-1,5-dimethyl-1H-pyrazol-4-yl)imidazolidin-2-one]
2.57 nM	0.26 nM	100 nM	2230 nM	Cc1cccc(-n2nc(C)cc2N2CCN(C[C@H]3COc4ccccc4O3)CC2)n1 [Compound of example 40, (S)-1-((2,3-Dihydrobenzo[b][1,4]dioxin-2-yl)methyl)-4-(3-methyl-1-(6-methylpyridin-2-yl)-1H-pyrazol-5-yl)piperazine]
2.28 nM	0.23 nM	149 nM	3320 nM	Cc1cc(N2CCN(C[C@H]3COc4ccccc4O3)CC2)n(-c2ccccn2)n1 [Compound of example 38, (S)-1-((2,3-Dihydrobenzo[b][1,4]dioxin-2-yl)methyl)-4-(3-methyl-1-(pyridin-2-yl)-1H-pyrazol-5-yl)piperazine]
1.62 nM	0.165 nM	306 nM	6810 nM	COCc1c(N2CCN(C[C@H]3COc4ccccc4O3)CC2)nn(C)c1C [Compound of example 11, (S)-1-((2,3-Dihydrobenzo[b][1,4]dioxin-2-yl)methyl)-4-(4-(methoxymethyl)-1,5-dimethyl-1H-pyrazol-3-yl)piperazine]
< 0.1 nM	< 0.01 nM	–	–	Cc1c(N2CC(C)(C)N(C)C2=O)c(N2CCN(C[C@H]3COc4ccccc4O3)CC2)nn1C [Compound of example 7, (S)-1-(3-(4-((2,3-Dihydrobenzo[b][1,4]dioxin-2-yl)methyl)piperazin-1-yl)-1,5-dimethyl-1H-pyrazol-4-yl)-3,4,4-trimethylimidazolidin-2-one]
< 0.1 nM	< 0.01 nM	–	–	Cc1c(N2C(=O)CC(C)(C)C2=O)c(N2CCN(C[C@H]3COc4ccccc4O3)CC2)nn1C [Compound of example 1, (S)-1-(3-(4-((2,3-Dihydrobenzo[b][1,4]dioxin-2-yl)methyl)piperazin-1-yl)-1,5-dimethyl-1H-pyrazol-4-yl)-3,3-dimethylpyrrolidine-2,5-dione]
